Here are results for 20 molecules from patent publication US10800754B2, “Heterocyclic amide compound” (TAKEDA PHARMACEUTICAL COMPANY LIMITED, priority 2016, dated 2020).

SMILES strings stand for the structures.

Assay [1] relates to human ovarian cancer cell A2780. Nature of the assay: proliferation inhibitory activity against A2780 cells (CellTiter-Glo). It is filed as cell-based. Particulars: A2780, 72 h, 1 μM test compound, 3 days of culture, read-out: proliferation inhibitory rate (%) of A2780 cells. On the procedure:
The proliferation inhibitory activity of the compound of the present invention against human ovarian cancer cell A2780 was evaluated by the following method.
Human ovarian cancer cells A2780 were seeded in a 384 well culture plate at 1000 cells in 30 μL of medium per well by using RPMI-1640 medium (Wako Pure Chemical Industries, Ltd.) containing 10% fetal bovine serum and penicillin/streptomycin. The next day, 10 μL of RPMI-1640 medium containing the test compound was added to the cells. After 3 days of culture, 20 μL of CellTiter-Glo Luminescent Cell Viability Assay solution (Promega, Fitchburg, Wis., US) was added. The luminescence signal was measured using EnVision (PerkinElmer, Waltham, Mass., US) and the inhibitory rate (%) of the test compound was calculated with a well free of seeding of cell as 100% inhibition.
On the technique in general: In ATP-based viability assays light output follows the ATP content of the culture.

For assay [2], the target named is T1, human PRS protein (Homo sapiens, UniProt P07814).
T1 construct: to construct His-Avi-hEPRS (998-1512) expression plasmid; His tag (N); Avi tag (N); TEV cleavage site (ENLYFQ/GS, encoded by forward primer hEPRS-TEV-NheF) (N); made in house; host or cells: E. coli BL21(DE3)
T1 sequence (P07814 998-1512): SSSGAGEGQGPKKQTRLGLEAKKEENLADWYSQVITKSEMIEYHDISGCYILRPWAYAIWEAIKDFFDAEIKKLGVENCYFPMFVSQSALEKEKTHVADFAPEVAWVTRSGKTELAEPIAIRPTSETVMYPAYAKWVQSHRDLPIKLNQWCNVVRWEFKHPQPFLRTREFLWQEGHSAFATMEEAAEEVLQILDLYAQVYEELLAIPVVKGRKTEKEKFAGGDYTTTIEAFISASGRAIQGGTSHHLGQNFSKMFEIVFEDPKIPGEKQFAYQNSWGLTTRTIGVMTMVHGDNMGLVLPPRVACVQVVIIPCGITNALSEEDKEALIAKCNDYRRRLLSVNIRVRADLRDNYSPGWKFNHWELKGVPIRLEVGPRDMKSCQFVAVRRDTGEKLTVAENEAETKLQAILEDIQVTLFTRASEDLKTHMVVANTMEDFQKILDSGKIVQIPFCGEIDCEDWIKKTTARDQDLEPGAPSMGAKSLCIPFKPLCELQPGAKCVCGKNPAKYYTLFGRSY
Nature of the assay: PRS inhibitory activity (ATP/[32P]pyrophosphate exchange enzyme reaction). It is filed as biochemical. Particulars: 300 nM test compound; recombinant human PRS (EPRS 998-1512); read-out: inhibitory rate (%) of PRS. Summed up:
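His-Avi-tagged human EPRS catalytic domain (998-1512), E. coli-expressed, was preincubated 60 min with compound (enzyme added as 40 nM solution) in Tris pH 7.5, KCl, DTT, Tween 20 and MgCl2. The substrate solution contained 300 μM ATP, 160 μM L-proline, and 400 μM pyrophosphate with [32P]pyrophosphate; reaction ran 30 min at room temperature. Charcoal-captured label was counted, with enzyme-free wells taken as 100% inhibition.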

In the case of `CC(C)(O)Cn1cc(-c2cccc(CC(=O)Nc3cc(N4CC[C@@](C#N)(C5CC5)C4=O)ccn3)c2)cn1` [Example 101, N-(4-((3S)-3-cyano-3-cyclopropyl-2-oxopyrrolidin-1-yl)pyridin-2-yl)-2-(3-(1-(2-hydroxy-2-methylpropyl)-1H-pyrazol-4-yl)phenyl)acetamide], in assay [1], the inhibition at 1 µM is 69%. Further, the inhibition at 0.3 µM in assay [2] stood at 99%.
In the same order, the values of `N#C[C@@]1(C2CC2)CCN(c2ccnc(NC(=O)Cc3cccc(-c4cnn(C5CCCC5)c4)c3)c2)C1=O` [Example 66, N-(4-((3S)-3-cyano-3-cyclopropyl-2-oxopyrrolidin-1-yl)pyridin-2-yl)-2-(3-(1-cyclopentyl-1H-pyrazol-4-yl)phenyl)acetamide] are 80% and 99%.
As to `Cc1cc(N2CC[C@@](C#N)(C3CC3)C2=O)cc(NC(=O)Cc2cccc(-c3cnn(C)c3)c2)n1` [Example 30, N-(4-((3S)-3-cyano-3-cyclopropyl-2-oxopyrrolidin-1-yl)-6-methylpyridin-2-yl)-2-(3-(1-methyl-1H-pyrazol-4-yl)phenyl)acetamide], the inhibition at 1 µM in assay [1] was found to be 99%. In assay [2], the inhibition at 0.3 µM was 99%.
`Cc1cc(N2CC[C@@](C#N)(C3CC3)C2=O)cc(NC(=O)Cc2cc(-c3cnn(C)c3)cc(C(F)(F)F)c2)n1` [Example 59, N-(4-((3S)-3-cyano-3-cyclopropyl-2-oxopyrrolidin-1-yl)-6-methylpyridin-2-yl)-2-(3-(1-methyl-1H-pyrazol-4-yl)-5-(trifluoromethyl)-phenyl)acetamide]: the inhibition at 1 µM in assay [1] worked out at 51%. Also, the inhibition at 0.3 µM in assay [2] came out at 93%.
In the case of `N#C[C@@]1(C2CC2)CCN(c2ccnc(NC(=O)Cc3cccc(-c4cnn(CC5CC(F)(F)C5)c4)c3)c2)C1=O` [Example 87, N-(4-((3S)-3-cyano-3-cyclopropyl-2-oxopyrrolidin-1-yl)pyridin-2-yl)-2-(3-(1-((3,3-difluorocyclobutyl)-methyl)-1H-pyrazol-4-yl)phenyl)acetamide], the inhibition at 1 µM in assay [1] was determined as 74%. The inhibition at 0.3 µM in assay [2] was found to be 100%.
In the same order, the values of `Cc1cc(N2CC[C@@](C#N)(C3CC3)C2=O)cc(NC(=O)Cc2cc(F)cc(-c3cn(C)nn3)c2)n1` [Example 57, N-(4-((3S)-3-cyano-3-cyclopropyl-2-oxopyrrolidin-1-yl)-6-methylpyridin-2-yl)-2-(3-fluoro-5-(1-methyl-1H-1,2,3-triazol-4-yl)phenyl)acetamide] are 94% and 99%.
As for `Cc1cc(-c2cccc(CC(=O)Nc3cc(N4CC[C@@](C#N)(C5CC5)C4=O)ccn3)c2)sn1` [Example 48, N-(4-((3S)-3-cyano-3-cyclopropyl-2-oxopyrrolidin-1-yl)pyridin-2-yl)-2-(3-(3-methyl-1,2-thiazol-5-yl)phenyl)acetamide], the inhibition at 1 µM in assay [1] was determined as 61%. For the same molecule, the inhibition at 0.3 µM in assay [2] turned out to be 100%.
`Cc1cc(N2CC[C@@](C#N)(C3CC3)C2=O)cc(NC(=O)Cc2cccc(-c3cnn(C)c3C)c2)n1` [Example 98, N-(4-((3S)-3-cyano-3-cyclopropyl-2-oxopyrrolidin-1-yl)-6-methylpyridin-2-yl)-2-(3-(1,5-dimethyl-1H-pyrazol-4-yl)phenyl)acetamide]: the inhibition at 1 µM in assay [1] is 69%. Moreover, the inhibition at 0.3 µM in assay [2] amounted to 98%.
Turning to `N#C[C@@]1(C2CC2)CCN(c2ccnc(NC(=O)Cc3cccc(-c4cnn(CC(F)(F)C(F)F)c4)c3)c2)C1=O` [Example 95, N-(4-((3S)-3-cyano-3-cyclopropyl-2-oxopyrrolidin-1-yl)pyridin-2-yl)-2-(3-(1-(2,2,3,3-tetrafluoropropyl)-1H-pyrazol-4-yl)phenyl)acetamide], the inhibition at 1 µM in assay [1] turned out to be 70%. Moreover, the inhibition at 0.3 µM in assay [2] was 99%.
In the same order, the values of `Cc1cc(N2CC[C@@](C#N)(C3CC3)C2=O)cc(NC(=O)Cc2ccccc2)n1` [Example 20, N-(4-((3S)-3-cyano-3-cyclopropyl-2-oxopyrrolidin-1-yl)-6-methylpyridin-2-yl)-2-phenylacetamide] are 63% and 94%.
With `CCn1cc(-c2cccc(CC(=O)Nc3cc(N4CC[C@@](C#N)(C5CC5)C4=O)ccn3)c2)cn1` [Example 37, N-(4-((3S)-3-cyano-3-cyclopropyl-2-oxopyrrolidin-1-yl)pyridin-2-yl)-2-(3-(1-ethyl-1H-pyrazol-4-yl)phenyl)acetamide], in assay [1], the inhibition at 1 µM worked out at 90%. Moreover, the inhibition at 0.3 µM in assay [2] was found to be 99%.
In the same order, the values of `Cc1cc(N2CC[C@@](C#N)(C3CC3)C2=O)cc(NC(=O)Cc2cccc3ccccc23)n1` [Example 27, N-(4-((3S)-3-cyano-3-cyclopropyl-2-oxopyrrolidin-1-yl)-6-methylpyridin-2-yl)-2-(1-naphthyl)acetamide] are 74% and 97%.
In the same order, the values of `N#C[C@@]1(C2CC2)CCN(c2ccnc(NC(=O)Cc3cccc(-c4cnn(CC5CCCCO5)c4)c3)c2)C1=O` (stereo partly drawn) [Example 83, N-(4-((3S)-3-cyano-3-cyclopropyl-2-oxopyrrolidin-1-yl)pyridin-2-yl)-2-(3-(1-(tetrahydro-2H-pyran-2-ylmethyl)-1H-pyrazol-4-yl)phenyl)acetamide] are 58% and 99%.
As for `N#C[C@@]1(C2CC2)CCN(c2ccnc(NC(=O)Cc3cccc(-c4cn[nH]c4)c3)c2)C1=O` [Example 56, N-(4-((3S)-3-cyano-3-cyclopropyl-2-oxopyrrolidin-1-yl)pyridin-2-yl)-2-(3-(1H-pyrazol-4-yl)phenyl)acetamide], the inhibition at 1 µM in assay [1] is 64%. Further, the inhibition at 0.3 µM in assay [2] was 98%.
As to `N#C[C@@]1(C2CC2)CCN(c2ccnc(NC(=O)Cc3cccc(-c4cnsc4)c3)c2)C1=O` [Example 50, N-(4-((3S)-3-cyano-3-cyclopropyl-2-oxopyrrolidin-1-yl)pyridin-2-yl)-2-(3-(1,2-thiazol-4-yl)phenyl)acetamide], in assay [1], the inhibition at 1 µM came out at 78%. The inhibition at 0.3 µM in assay [2] turned out to be 99%.
`N#C[C@@]1(C2CC2)CCN(c2ccnc(NC(=O)Cc3cccc(-c4cnn(CC(F)(F)F)c4)c3)c2)C1=O` [Example 58, N-(4-((3S)-3-cyano-3-cyclopropyl-2-oxopyrrolidin-1-yl)pyridin-2-yl)-2-(3-(1-(2,2,2-trifluoroethyl)-1H-pyrazol-4-yl)phenyl)acetamide]: in assay [1], the inhibition at 1 µM turned out to be 75%. The inhibition at 0.3 µM in assay [2] is 99%.
In the same order, the values of `Cc1cc(N2CC[C@@](C#N)(C3CC3)C2=O)nc(NC(=O)Cc2cccc(-c3cnn(C)c3)c2)n1` [Example 132, N-(4-((3S)-3-cyano-3-cyclopropyl-2-oxopyrrolidin-1-yl)-6-methylpyrimidin-2-yl)-2-(3-(1-methyl-1H-pyrazol-4-yl)phenyl)acetamide] are 73% and 98%.
In the same order, the values of `COCCn1cc(-c2cccc(CC(=O)Nc3cc(N4CC[C@@](C#N)(C5CC5)C4=O)ccn3)c2)cn1` [Example 70, N-(4-((3S)-3-cyano-3-cyclopropyl-2-oxopyrrolidin-1-yl)pyridin-2-yl)-2-(3-(1-(2-methoxyethyl)-1H-pyrazol-4-yl)phenyl)acetamide] are 58% and 99%.
Turning to `Cn1cc(-c2cccc(CC(=O)Nc3cc(N4CC[C@@](C#N)(C5CC5)C4=O)ccn3)c2)ccc1=O` [Example 41, N-(4-((3S)-3-cyano-3-cyclopropyl-2-oxopyrrolidin-1-yl)pyridin-2-yl)-2-(3-(1-methyl-6-oxo-1,6-dihydropyridin-3-yl)phenyl)acetamide], the inhibition at 1 µM in assay [1] turned out to be 72%. In assay [2], the inhibition at 0.3 µM amounted to 101%.
Take `N#C[C@@]1(C2CC2)CCN(c2ccnc(NC(=O)Cc3cccc(-c4cnn(CC5CCOCC5)c4)c3)c2)C1=O` [Example 84, N-(4-((3S)-3-cyano-3-cyclopropyl-2-oxopyrrolidin-1-yl)pyridin-2-yl)-2-(3-(1-(tetrahydro-2H-pyran-4-ylmethyl)-1H-pyrazol-4-yl)phenyl)acetamide]: in assay [1], the inhibition at 1 µM was 55%. Besides, the inhibition at 0.3 µM in assay [2] amounted to 97%.
